Test system: C. beijerinckii NCIMB 8052
Assay: Final pH of cell-free culture supernatants of sequential batch cultures
Format: cell-based, Clostridium beijerinckii
Method: Bacterial strains and media. Clostridium acetobutylicum ATCC 824 and C. beijerinckii NCIMB 8052 are available from several commercial microbial culture collections including the American Type Culture Collection (ATCC), Manassas, Va., USA. The strains were grown at 30° C. or 37° C. in YE broth, which contained, per liter: 5.0 g yeast extract, 2.5 g casamino acids, 1.0 g L-asparagine, 0.5 g cysteine.HCl, 56 mg K2HPO4, 56 mg KH2PO4, 82 mg anhydrous MgSO4, 8 mg FeSO4.H2O, 6 mg MnSO4.H2O and 10 g glucose. Alternatively, strains were grown in YEPG broth, which was identical to YE expect that K2HPO4 and KH2PO4 were increased to 145 mg/L each and glucose was increased to 60 g/L. The pH of the media was adjusted to 7.2 using 45% KOH prior to sterilization by autoclaving. Media were solidified by addition of 1.5% Bacteriological Agar, Actimedia Manufacturers, Inc., Lansing, Mich. All cultures were grown in anaerobic conditions using the AnaeroPack System, Mitsubishi Gas Chemical Co., Inc., Japan, and GasPak EZ Gas Generating Sachets, Becton, Dickinson and Co., Sparks, Md. Spore stocks were kept at room temperature on agar-solidified media and were activated by suspending spores in 0.5 mL to 1.0 mL of medium followed by heating for 10 min at 80° C. before inoculation into growth medium.
Growth and pH measurements. Growth of bacterial cultures was measured spectrophotometrically using optical density at 600 nm and pH of cell-free culture supernatants was measured using a hand-held Shindengen ISFET pH Meter KS501, Shendengen Electric Manufacturing Co., Ltd., Bannockburn, Ill.
Effect of peptide SEQ ID NO:145 addition on sequential batch cultures of C. beijerinckii NCIMB 8052 grown at 30° C. Spores of C. beijerinckii NCIMB 8052 were germinated and grown overnight at 30° C. under anaerobic conditions in YEPG medium. After about 24 h of growth, […] of the culture was transferred (transfer 1) to each of four flasks that contained 10 mL of YEPG and either had no treatment or were treated with peptide SEQ ID NO:145 (see Table 8) at 1 nM, 10 nM or 50 nM. Thereafter, 75 μL of each culture was transferred, at the same time, every 24-48 h to 10 mL of fresh YEPG that contained the same peptide treatment or no treatment. Each culture was stopped after 96 hours of incubation and optical density, pH and ceric ion reactive chemicals were measured. Sequential batch culturing was continued through 6 transfers at which point all cultures appeared to be growing to the same extent (Table 12 and FIG. 4).
Effect of peptide SEQ ID NO:145 addition on sequential batch cultures of C. beijerinckii NCIMB 8052 grown at 37° C. Spores of C. beijerinckii NCIMB 8052 were germinated and grown overnight at 37° C. under anaerobic conditions in YEPG medium that either contained 50 nM of peptide SEQ ID NO:145 or no added peptide. After about 24 h of growth, 10 μL of the untreated culture was transferred (transfer 1) to each of two flasks that contained 10 mL of YEPG with either no treatment or with 50 nM peptide SEQ ID NO:145. At the same time, 10 μL of the culture that was germinated in the presence of peptide SEQ ID NO:145 was also transferred to 10 mL of YEPG that contained 50 nM of peptide SEQ ID NO:145. Thereafter, 10 μL of each culture was transferred, at the same time, every 24-48 h to 10 mL of fresh YEPG that contained the same peptide treatment or no treatment. Each culture was stopped after 72 hours of incubation and optical density, pH and ceric ion reactive chemicals were measured. Addition of peptide SEQ ID NO:145 appeared to have no effect on endpoint measurements of the growth of C. beijerinckii NCIMB 8052 after germination or during sequential transfers of cultures at 37° C. (Table 18 and FIG. 10). All three cultures stopped growing at the second transfer.

IRLIT (Derived from Clostridium beijerinckii SEQ ID NO: 141) [Peptide SEQ ID NO:145, pentapeptide from C. beijerinckii NCIMB 8052 locus Cbei_1065; chemically synthesized putative autoinducing peptide]
Final pH of culture broths (1 nM peptide, transfer 1, 96 h, 30° C.): 5.3
Final pH of culture broths (1 nM peptide, transfer 2, 96 h, 30° C.): 5.3
Final pH of culture broths (1 nM peptide, transfer 3, 96 h, 30° C.): 5.1
Final pH of culture broths (1 nM peptide, transfer 4, 96 h, 30° C.): 5.3
Final pH of culture broths (1 nM peptide, transfer 5, 96 h, 30° C.): 5.3
Final pH of culture broths (1 nM peptide, transfer 6, 96 h, 30° C.): 5.3
Final pH of culture broths (10 nM peptide, transfer 1, 96 h, 30° C.): 5.3
Final pH of culture broths (10 nM peptide, transfer 2, 96 h, 30° C.): 5.3
Final pH of culture broths (10 nM peptide, transfer 3, 96 h, 30° C.): 5.0
Final pH of culture broths (10 nM peptide, transfer 4, 96 h, 30° C.): 5.3
Final pH of culture broths (10 nM peptide, transfer 5, 96 h, 30° C.): 5.4
Final pH of culture broths (10 nM peptide, transfer 6, 96 h, 30° C.): 5.3
Final pH of culture broths (50 nM peptide added after germination, transfer 1, 72 h, 37° C.): 4.1
Final pH of culture broths (50 nM peptide added after germination, transfer 2, 72 h, 37° C.): 6.5
Effect on endpoint measurements of pH (50 nM peptide, 37° C.): no apparent effect
Final pH of culture broths (50 nM peptide, transfer 1, 96 h, 30° C.): 5.4
Final pH of culture broths (50 nM peptide, transfer 2, 96 h, 30° C.): 5.3
Final pH of culture broths (50 nM peptide, transfer 3, 96 h, 30° C.): 5.2
Final pH of culture broths (50 nM peptide, transfer 4, 96 h, 30° C.): 5.3
Final pH of culture broths (50 nM peptide, transfer 5, 96 h, 30° C.): 5.3
Final pH of culture broths (50 nM peptide, transfer 6, 96 h, 30° C.): 5.3
Final pH of culture broths (50-50: germinated and transferred in 50 nM peptide, transfer 1, 72 h, 37° C.): 4.1
Final pH of culture broths (50-50: germinated and transferred in 50 nM peptide, transfer 2, 72 h, 37° C.): 6.6
Final pH of culture broths (50-50: spores germinated in 50 nM peptide, transfer 0 (germinated culture), 72 h, 37° C.): 4.1

— patent US20120107916A1, “METHODS AND COMPOSITIONS FOR AFFECTING THE DIFFERENTIATION OF CLOSTRIDIA IN CULTURE” (priority 2009, published 2012)
